Source: publication PMC9154810, “Selective inhibition of carbonic anhydrase IX by sulphonylated 1,2,3-triazole incorporated benzenesulphonamides capable of inducing apoptosis” (Journal of Enzyme Inhibition and Medicinal Chemistry, 2022)
Where two headings read alike, the source gives them in different places.

Key:
[1] = MTT assay, cell viability; assay type: cell-based; conditions: goat (Capra hircus), primary goat testicular cells, mean ± SEM, read-out: percent cell viability
Protocol: (§1) Goat (Capra hircus) testicular tissues were procured from slaughterhouses of Chandigarh (30°43′ N, 76°12′ E) and around Kurukshetra (29°6′ N, 76°50′ E) in 0.9% normal saline at 4 °C. The testicular cells/tissues were cultured in vitro in media-TCM199 and exposed to 10 µM concentration of given compounds for 6 h in a CO2 incubator with 5% CO2 and 95% humidity at 38 °C temperature.[22]^,[23]
Testicular cells were cultured in 96-well plates. Wells for blank control were without any cells and contained MTT [3-(4,5-dimethylthiazol-2-yl)-2,5-diphenyl-tetrazolium-bromide)], culture medium, and DMSO. The remaining wells were seeded with testicular cells, which were treated with given compounds at 10 µM concentration for 6 h. Post treatment, 10 µL of MTT stock solution was added to each well, and the reaction mixture was incubated for 2 h. After that 200 µL of DMSO was added in each well, followed by shaking for 10 min. Absorbance of reaction mixture was taken at 470 nm.

testicular cells = experiment: EB/AO differential staining, apoptosis detection and quantification; assay type: cell-based, Goat (Capra hircus); conditions: 10 µM, 6 h, mean ± SEM; control 7.33 ± 0.33
Protocol: as §1
Ethidium bromide and acridine orange (EB/AO) staining was used to determine the cyto-genotoxic nature of given compounds in testicular cells.[25] Briefly, the testicular cell suspension prepared from the treated testicular tissue was mixed with equal volume of EB/AO differential stain on a glass slide and covered with a coverslip. Observation and quantification of apoptotic cells were done with fluorescence microscope (Olympus, Japan) using filters of 500–525 nm. Cells appearing bright green were marked as normal healthy cells, while cells displaying orange-red fluorescence were marked as apoptotic.

hCA I = hCA I (Homo sapiens, UniProt P00915); experiment: stopped-flow CO2 hydrase assay, hCA I
Excerpt: (§2) An Sx.18Mv-R Applied Photophysics (Oxford, UK) stopped-flow instrument was used to assay the catalytic activity of various CA isozymes for CO2 hydration reaction.[21]

hCA II = hCA II (Homo sapiens, UniProt P00918); experiment: stopped-flow CO2 hydrase assay, hCA II
Excerpt: as §2

hCA IV = hCA IV (Homo sapiens, UniProt P22748); experiment: stopped-flow CO2 hydrase assay, hCA IV
Excerpt: as §2

hCA IX = hCA IX (Homo sapiens, UniProt Q16790); experiment: stopped-flow CO2 hydrase assay, hCA IX; conditions: for Selectivity index I/IX: ratio KI hCA I / KI hCA IX; for Selectivity index II/IX: ratio KI hCA II / KI hCA IX
Excerpt: as §2

[2] = mean from three assays, stopped-flow technique, errors ± 5–10%

Sequence of hCA I (P00915 whole entry): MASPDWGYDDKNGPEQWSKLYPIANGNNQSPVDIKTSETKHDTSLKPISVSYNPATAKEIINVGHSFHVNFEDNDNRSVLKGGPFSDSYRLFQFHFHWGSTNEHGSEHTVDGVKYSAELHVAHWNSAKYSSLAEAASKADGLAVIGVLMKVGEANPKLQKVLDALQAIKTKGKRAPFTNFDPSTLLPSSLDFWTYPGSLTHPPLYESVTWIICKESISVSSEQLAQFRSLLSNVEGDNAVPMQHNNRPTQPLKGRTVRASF
Sequence of hCA IV (P22748 19-312): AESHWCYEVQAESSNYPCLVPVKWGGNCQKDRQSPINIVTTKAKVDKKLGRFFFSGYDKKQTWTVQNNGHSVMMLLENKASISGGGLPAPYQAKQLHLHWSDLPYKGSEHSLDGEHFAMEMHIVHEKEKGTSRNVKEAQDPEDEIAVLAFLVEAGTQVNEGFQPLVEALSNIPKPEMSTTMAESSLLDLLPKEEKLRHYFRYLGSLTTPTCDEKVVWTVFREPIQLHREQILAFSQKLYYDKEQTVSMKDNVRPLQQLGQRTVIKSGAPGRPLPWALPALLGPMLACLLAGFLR

| SMILES | viability at 6 h, 10 µM [1] | percent apoptosis (testicular cells) | melting point | Ki (hCA I; [2]) | Ki (hCA II) | Ki (hCA IV) | Ki (hCA IX) | Selectivity index I/IX (hCA IX) | Selectivity index II/IX (hCA IX) | Ki (hCA I) | selectivity for hCA IX over hCA I (hCA IX) |
| --- | --- | --- | --- | --- | --- | --- | --- | --- | --- | --- | --- |
| NS(=O)(=O)c1cccc(-n2nnc(S(=O)(=O)c3ccccc3)c2-c2ccc(Cl)cc2)c1 [Compound 10d, 3-(5-(4-chlorophenyl)-4-(phenylsulphonyl)-1H-1,2,3-triazol-1-yl)benzenesulphonamide] | 32 ± 6.92% | 35.00 ± 1.15% | 123 to 125 °C | 0.696 µM | 0.0584 µM | 0.0918 µM | 0.0164 µM | 42.42 | 3.56 | – | – |
| COc1ccc(-c2c(S(=O)(=O)c3ccccc3)nnn2-c2cccc(S(N)(=O)=O)c2)cc1Br [Compound 10h, 3-(5-(3-bromo-4-methoxyphenyl)-4-(phenylsulphonyl)-1H-1,2,3-triazol-1-yl)benzenesulphonamide] | 46.7 ± 4.8% | 29.33 ± 1.45% | 231 to 233 °C | 8.03 µM | 0.649 µM | 6.05 µM | 0.0228 µM | 352.32 | 28.45 | 8.03 µM | more than 100 fold |
